In this test the target is T1, androgen receptor LBD (Panvera) (Rattus norvegicus, UniProt P15207).
T1 construct: 5 pmol androgen receptor LBD (Panvera); purchased Panvera
T1 sequence (P15207 651-882 limits assumed): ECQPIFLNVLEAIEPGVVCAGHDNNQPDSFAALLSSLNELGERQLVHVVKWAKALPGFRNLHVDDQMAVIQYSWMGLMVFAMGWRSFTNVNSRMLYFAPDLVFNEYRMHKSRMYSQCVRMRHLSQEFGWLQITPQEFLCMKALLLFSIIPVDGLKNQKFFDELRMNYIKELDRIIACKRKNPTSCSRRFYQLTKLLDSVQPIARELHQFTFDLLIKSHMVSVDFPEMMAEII
As to the kind of experiment: Androgen Receptor Filtration Binding Assay (Panvera receptor). The conditions noted are these: Panvera receptor data; 0.5 nM [3H] R1881 tracer. As to the method:
In Vitro Assay—Androgen Receptor Filtration Binding Assay
The assay was run on a 96 well plate with each well filled with total reaction volume 150 μL, of a solution containing 5 pmol androgen receptor LBD (Panvera) or […] of freshly prepared rat cytosol, 0.5 nM [^3H] R1881 tracer (NEN), 1.5 μL (10 μM) test compound or vehicle (diluted in 30% DMSO, final concentration of DMSO 0.75%) and […] of TED buffer. (TED buffer contains 10 mM Tris.HCl pH 7.4, 1 mM sodium molybdate (60 mg/250 mL), 1.5 mM EDTA, 1 mM DTT and 10% (v/v) glycerol.)
On day one, the solution containing receptor, tracer and TED buffer was distributed onto a 96 well plate. Diluted test compound or control vehicle was then added to individual wells and the plate incubated ay 4° C. overnight.
On day two, to each well was then added 20 μL human γ-globulin (ICN 823102), prepared at 25 mg/ml in TE pH 8.0 and 55 μL 40% polyethylene glycol 8000 (J T Baker U222-08), prepared in TE pH 8.0. […] The plate wells were then counted on a TopCount (Packard).
Representative compounds of the present invention were tested for binding to the androgen receptor according to the procedure described above with results as listed in Table 3. % Inhibition values less that 0% indicate no binding at the […] level. The negative number(s) are a result of experimental error from the low number of counts detected.

Turning to `O=c1cc(C(F)(F)F)c2c3c(ccc2[nH]1)OC(F)(F)C(F)(F)O3` [compound 2], the concentration for half-maximal inhibition (IC50) was 4.8 µM.

`O=c1cc(C(F)(F)F)c2c3c(ccc2[nH]1)OCCO3` [compound 1]: the half-maximal inhibitory concentration (IC50) is 5.2 µM.

What is called IC50 is the concentration that gives 50% inhibition. High values mean a need for much substance, low ones inhibition by little substance.

These data come from patent US6858621B2, “2-(quinolonyl)-fused heterocycles as androgen receptor modulators” (Ortho-McNeil Pharmaceutical, Inc., priority 2002, dated 2005).
